PubChem BioAssay AID493102 (Broad Institute, 2011)

Test system: SK-MEL-5 TRPM1-promoter luciferase reporter, 24 h
Assay: TRPM1 promoter luciferase signal decrease, dose response, MITF inhibitor project, cell-based, SK-MEL-5, cherry-picked, set 4 (AID 493102);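 further: actives lower the luciferase signal so the potency reflects inhibition of reporter expression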

O=C(Nc1nc(-c2ccccn2)cs1)c1ccc(F)c(S(=O)(=O)N2CCOCC2)c1
AC50: 5.7 µM

Cc1cc(/C=C2\Sc3ccccc3N2C)cc(C)[n+]1CC1CCCO1 (stereo not given)
AC50: 1.82 µM

CCN1CCCC1CNC(=O)c1ccc2c(c1)NC(=O)/C(=C\c1ccc(OC)c(OC)c1)S2 (stereo not given)
AC50: 13.8 µM

CCN1CCCC1CNC(=O)c1ccc2c(c1)NC(=O)/C(=C\c1ccc(C)cc1)S2 (stereo not given)
AC50: 18.9 µM

CC(/C=N/NC(=O)c1cc(-c2ccncc2)nc2ccccc12)=C\c1ccco1
AC50: 2.4 µM

Cc1ccc(C2=NN(C(=O)CCl)C(c3cccs3)C2)o1 (stereo not given)
AC50: 6.1 µM

COc1ccc2[nH]cc(C(=O)CCl)c2c1
AC50: 5.65 µM

CCOc1ccc(-n2c(C)cc(C(=O)CCl)c2C)cc1
AC50: 4.59 µM

O=C(NC(=S)NCc1ccccc1)c1ccccc1
AC50: 22.1 µM

CN(C)CCCNC(=O)/C(=C\c1ccc(-c2ccc(Br)cc2)o1)NC(=O)c1ccccc1
AC50: 7.51 µM

Clc1ccc(-c2c[n+](Cc3cccc(Cl)c3)c3n2CCC3)cc1
AC50: 8.77 µM

CCOC(=O)c1c(NC(C)=O)sc2c(OCC(O)CNC(C)(C)C)c(Br)ccc12 (stereo not given)
AC50: 7.72 µM

O=C(Nc1ccc(S(=O)(=O)N2CCCCCC2)cc1)c1[nH]ncc1[N+](=O)[O-]
AC50: 4.02 µM

Cn1nc([N+](=O)[O-])nc1S(C)(=O)=O
AC50: 9.2 µM

COCCN(C(=O)CCl)C(C(=O)NC1CCCCC1)c1ccccc1C (stereo not given)
AC50: 17.8 µM

Cc1ccc(C(=O)C[n+]2cc(-c3ccc(C)cc3)n3c2CCCCC3)cc1
AC50: 3.63 µM

O=C(CCl)Nc1cccc(Oc2ccccc2)c1
AC50: 8.07 µM

N=c1n(CCN2CCCC2)c2ccccc2n1CC(O)c1ccc(Cl)c(Cl)c1 (stereo not given)
AC50: 11.8 µM

Cc1ccc(-n2cc(CNCCCn3ccnc3C)c(-c3ccc(F)cc3)n2)cc1
AC50: 7.58 µM

COc1cccc(/C=N/Nc2ccc(C(=O)O)cc2)c1O
AC50: 0.333 µM

O=C(Cn1cc(/C=C\[N+](=O)[O-])c2ccccc21)Nc1ccccc1
AC50: 7.46 µM

COc1cc(/C=C/C(=O)N2CCC=CC2=O)cc(OC)c1OC
AC50: 7.4 µM

CCCCCCN1C=CC(=C2C(=O)c3ccccc3C2=O)C=C1
AC50: 3.86 µM

O=C1c2ccccc2C(=O)c2c1ncn2-c1ccccc1
AC50: 7.33 µM

Cc1ccc(-c2nnc(SCC(=O)Nc3ccccc3F)o2)cc1
AC50: 2.3 µM

CCCCn1c(=N)n(CCOc2ccc(C)cc2)c2ccccc21
AC50: 11.3 µM

CC(C)(C)c1ccc(OCCCNCc2ccccc2)cc1
AC50: 18.4 µM

CCCN1CCC(NCc2cn(C)nc2-c2ccc(Oc3ccccc3)cc2)CC1
AC50: 8.35 µM

CC(C)(C)NC(=O)CCN(/N=C/c1ccc([N+](=O)[O-])o1)C1=NS(=O)(=O)c2ccccc21
AC50: 7.18 µM

CC(C)c1oc(=O)cc2c1[C@@H](O)[C@H]1OC(=O)[C@@]3(C)C[C@@H](O)[C@@H](O)[C@@]2(C)C13 (stereo not given in full)
AC50: 1.63 µM

CC(C)(C)C(=O)Cn1ncc(Br)c(Br)c1=O
AC50: 3.92 µM

O=C1NC(=S)NC(=O)C1=Cc1cccn1-c1ccc(O)cc1
AC50: 11.4 µM

COc1ccc(Cn2c(-c3ccc(C)cc3)c[n+]3ccccc23)cc1
AC50: 2.89 µM

Cc1cc(C)cc(OCC(=O)N/N=C/c2ccc([N+](=O)[O-])o2)c1
AC50: 7.12 µM

O=C(CNc1ccc2ccccc2c1)N/N=C/c1ccc([N+](=O)[O-])o1
AC50: 4.95 µM

Cc1c(NC(=O)C(C)OC(=O)c2ccc([N+](=O)[O-])s2)c(=O)n(-c2ccccc2)n1C (stereo not given)
AC50: 34.1 µM

CC(C)(c1ccccc1)c1ccc(OCC(O)CNC2CCN(Cc3ccccc3)CC2)cc1 (stereo not given)
AC50: 7.94 µM

COc1cc(OC)cc(-c2oc(=O)c3cc(OC)c(OC)cc3c2C(F)(F)F)c1
AC50: 12.8 µM

COc1cc(NC(=O)COc2ccccc2[N+](=O)[O-])ccc1NC(=O)c1cccs1
AC50: 10.1 µM

O=C(c1ccc([N+](=O)[O-])s1)N1CCN(c2ccccn2)CC1
AC50: 12.2 µM

O=C(O)c1ccc(C(=O)Nc2ccc(F)cc2)cc1
AC50: 19.8 µM

CN(C)CCNc1ccc2nnn3c4ccc(O)cc4c(=O)c1c23
AC50: 4.73 µM

COc1cc(/C=N/NC(N)=O)c(Br)cc1OCC(=O)Nc1ccccc1C
AC50: 17.8 µM

O=C1CN(C(=O)Cn2ncc(Cl)c(Cl)c2=O)c2ccccc2N1
AC50: 8.67 µM

C=CCSC(=S)NC1CCS(=O)(=O)C1 (stereo not given)
AC50: 20.7 µM
